# Results reported in US8119589B2, “Modulation of CD4+ T cell responses by a tick saliva protein, Salp15 and polypeptides derived therefrom” (University of North Carolina at Charlotte, priority 2004, dated 2012).
# How the values were obtained:
# [1] = tested on: Jurkat clone E6-1; assay: TCR ligation-induced tyrosine phosphorylation in stimulated Jurkat cells; assay type: cell-based, human
# Procedure: Naïve CD4+ T cells from C3H/HeN, Balb/c, and B10.BR mice were purified as previously described (Anguita et al., 2002). CD4+ T cells were preincubated in Click's modified Bruff's Medium (Sigma Chemical Co., St. Louis, Mo., U.S.A.) for 10 minutes at 37° C. with and without Salp15 (50 μg/mL) and stimulated for 20 min or the indicated times at 37° C. with 10 μg/mL of anti-CD3ε, 1 μg/mL of anti-CD28, and 10 μg/mL of anti-armenian and syrian hamster IgG (BD Biosciences Pharmingen, San Jose, Calif., U.S.A.). Jurkat (E6-1) cells were stimulated using 5 μg/mL of OKT3 mAb (eBioscience, San Diego, Calif., U.S.A.) and 1 μg/mL of anti-human CD28 cross linked with 5 μg/mL anti-mouse IgG for the indicated times.
# For the visualization of lipid rafts, phospho-tyrosine, and cytoskeleton reorganization, CD4^+, CD8^+ or Jurkat cells were cytospun for 10 minutes at 1000 RPM onto positively charged microslides (Fisher Scientific, Hampton, N.H., U.S.A.). The cells were fixed with 3.7% paraformaldehyde (Sigma Chemical Co.) for 15 minutes and stained with CTB594 (Molecular Probes, Eugene, Oreg., U.S.A.), AlexaFluor488 labeled phalloidin (Molecular Probes) or (1:50) biotin-conjugated anti-p-Tyr (PY99) followed by Streptavidin-AlexaFluor594 (1:100, Molecular Probes). […]
# [2] = tested on: CD8+ cells; assay: Salp15488 binding on cell surface by confocal microscopy; set-up: species or system mouse
# [3] = target: T1, sCD4 D1-D4 (Homo sapiens, UniProt P01730); assay: Microtiter binding assay with immobilized sCD4 D1-D4; details: Salp15 0.4 μM; similar kinetics to D1-D2
# T1 construct: a sCD4 preparation that contains all four extracellular domains (D1-D4)
# Procedure: Purified sCD4 was coated overnight at 4° C. at the indicated concentrations in 0.1M sodium carbonate buffer (pH 9.5) in 96 well plates. Equimolar amounts of lysozyme were used as a non-specific control. The wells were washed, blocked with 10% FCS/PBS for 1 hr at R.T., and incubated with Salp15 (0.4 μM) for 2 hr at 37° C. Salp15 binding was detected by incubation with horseradish peroxidase (HRP)-conjugated anti-His antibody for 1 hr followed by microwell peroxidase substrate (KPL). The reaction was stopped by adding TMB stop solution (KPL). Chemically synthesized overlapping peptides of Salp15 were purchased from GenScript Corporation (Piscataway, N.J., U.S.A). To study the binding of Salp15 and peptides to sCD4, Salp15 (5 μg) and different peptides (0.5 μg) were coated. The wells were washed and blocked prior to incubation with sCD4-HRP (Research Diagnostics Inc., Flanders, N.J., U.S.A.). For competition assays, indicated concentrations of Salp15 or P11 were added to sCD4-HRP and incubated with plate bound P11 (0.1 μg). To estimate the effect of dithiothreitol (DTT) treatment of Salp15 on binding to sCD4, 0.5 μM Salp15 was treated with 10 mM DTT overnight and immobilized onto microtiter plate followed by blocking and incubation with sCD4-HRP.
# [4] = tested on: CD4+ T cells from DO11.10 transgenic mice; assay: IL-2 production by DO11.10 transgenic CD4+ T cells activated with ovalbumin and APCs; assay type: cell-based, mouse; details: 0.5, 5.0 and 50 μg/mL Salp15; ovalbumin; 72 hrs
# Procedure: T-cells from CD4-deficient and B6 mice (The Jackson Laboratory, Bar Harbor, Me., U.S.A.) were purified by negative selection and activated for 72 hrs using 5 μg/ml of plate bound anti-CD3 and 1 μg/ml of anti-CD28 in the presence or absence of 50 μg/mL of Salp15. DO11.10 transgenic mouse (The Jackson Laboratory) CD4^+ T cells were purified by negative selection as before and incubated in the presence of 106/mL of syngeneic mitomycin C-treated (50 μg/ml for 40 min at 37° C.) antigen presenting cells (APCs) with 10 μg/mL of ovalbumin in the presence of 0.5, 5.0 and 50 μg/mL of Salp15 for 72 hrs. The supernatants were then collected and IL-2 measured by capture ELISA following the manufacturer's instruction (BD Biosciences Pharmingen).
# [5] = target: T2, HIV gp120 binding to CD4 (Homo sapiens, UniProt P01730); assay: gp120-HRP binding to plate-coated sCD4 (D1-D2); details: 0.05, 0.5 and 5 uM Salp15
# T2 construct: coated with 0.05 uM sCD4 (D1-D2 domains)
# Procedure: Ninety-six (96) well plates were coated with 0.05 uM sCD4 (D1-D2 domains) in coating buffer (pH 9.6). The plates were washed 2× and blocked with 200 uL of PBS+10% FCS. Samples were then added containing gp120-HRP plus 0, 0.05, 0.5 and 5 uM Salp15 in PBS+10% FCS. KLH was used as negative control at 5 uM. The plates were incubated for 2 hours at room temperature and washed 4×, followed by incubation with horseradish peroxidase substrate and stop solution from KPL.
substance,measurement,setting,value
"Salp15: secreted salivary protein from Ixodes scapularis, SEQ ID NO: 2; recombinant His-tagged, produced in Drosophila S2 cells",Inhibitory effects on TCR ligation-induced tyrosine phosphorylation,"[1]; Jurkat cells, anti-pTyr staining",also observed
same,Inhibition of PLCγ1 phosphorylation,[1]; Jurkat clone E6-1,also evident
same,Staining of CD8+ cells,[2],no staining
same,Binding to sCD4 D1-D4,[3],saturable binding
same,Inhibition of IL-2 production,[4],dose dependent manner
same,Inhibition of gp120 binding to CD4,[5],concentration dependent inhibition
